# What was measured:
# leukemia cells P388 = details: read-out: ID50; P388, incorporation of tritiated thymidine at 48 hours
# Procedure: (§1) The evaluation of the cytotoxic activities of the compounds (1) was carried out "in vitro" measuring, according to known methods, the inhibition of the colony formation, the cell viability (Trypan blu) and the incorporation of tritiated thymidine in tumoral and normal cells.
# leukemia cells K562 = details: read-out: ID50; K562, incorporation of tritiated thymidine at 48 hours
# Procedure: as §1
# leukemia cells Jurkat = details: read-out: ID50, incorporation of tritiated thymidine at 48 hours
# Procedure: as §1
substance,measurement,setting,value
cis-diamino-chloro-(4-amino)benzoate-platinum(II) hydrochloride [Compound 1A],IC50,leukemia cells P388,11.4 µM
same,IC50,leukemia cells K562,26.3 µM
same,IC50,leukemia cells Jurkat,21.3 µM

# Source: patent publication US5405869A, “Anti-tumor platinum complexes” (Istituto Nazionale per la Ricerca sul Cancro, priority 1991, dated 1995)
